Experimental data from ChEMBL document CHEMBL1759971, “Substituted phenyl triazoles as selective inhibitors of 11β-Hydroxysteroid Dehydrogenase Type 1” (Bioorg Med Chem Lett, 2011).

What was measured:
[1] = target: 11-beta-hydroxysteroid dehydrogenase 1 (Mus musculus, UniProt P50172); experiment: Inhibition of mouse 11beta-HSD1 expressed in CHO-K1 cells assessed as conversion of [3H]cortisone to [3H]cortisol by scintillation counting; format: cell-based
[2] = system: Mus musculus; experiment: Inhibition of 11beta-HSD1 in ICR mouse assessed as conversion of [3H]cortisone to [3H]cortisol at 10 mg/kg, po after 16 hrs by scintillation counting; format: functional
[3] = system: Mus musculus; experiment: Inhibition of 11beta-HSD1 in ICR mouse assessed as conversion of [3H]cortisone to [3H]cortisol at 10 mg/kg, po after 4 hrs by scintillation counting; format: functional
[4] = target: T1, Nuclear receptor subfamily 1 group I member 2 (Homo sapiens, UniProt O75469); experiment: Agonist activity at PXR at 10 uM; format: functional
T1 sequence (O75469 whole entry): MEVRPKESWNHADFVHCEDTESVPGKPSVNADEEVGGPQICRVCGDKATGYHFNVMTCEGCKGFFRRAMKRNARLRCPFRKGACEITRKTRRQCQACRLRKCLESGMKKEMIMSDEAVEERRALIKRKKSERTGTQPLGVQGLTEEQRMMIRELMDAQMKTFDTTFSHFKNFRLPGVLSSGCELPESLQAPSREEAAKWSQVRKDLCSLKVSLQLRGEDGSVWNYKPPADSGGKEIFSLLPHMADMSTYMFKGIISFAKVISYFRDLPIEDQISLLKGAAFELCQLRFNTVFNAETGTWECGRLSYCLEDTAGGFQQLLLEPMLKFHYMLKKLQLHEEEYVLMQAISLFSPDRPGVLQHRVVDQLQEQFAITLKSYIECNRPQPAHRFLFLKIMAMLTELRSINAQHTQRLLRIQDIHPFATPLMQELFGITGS

[5] = target: T2, 11-beta-hydroxysteroid dehydrogenase type 2 (Homo sapiens, UniProt P80365); experiment: Inhibition of human 11beta-HSD2
T2 sequence (P80365 whole entry): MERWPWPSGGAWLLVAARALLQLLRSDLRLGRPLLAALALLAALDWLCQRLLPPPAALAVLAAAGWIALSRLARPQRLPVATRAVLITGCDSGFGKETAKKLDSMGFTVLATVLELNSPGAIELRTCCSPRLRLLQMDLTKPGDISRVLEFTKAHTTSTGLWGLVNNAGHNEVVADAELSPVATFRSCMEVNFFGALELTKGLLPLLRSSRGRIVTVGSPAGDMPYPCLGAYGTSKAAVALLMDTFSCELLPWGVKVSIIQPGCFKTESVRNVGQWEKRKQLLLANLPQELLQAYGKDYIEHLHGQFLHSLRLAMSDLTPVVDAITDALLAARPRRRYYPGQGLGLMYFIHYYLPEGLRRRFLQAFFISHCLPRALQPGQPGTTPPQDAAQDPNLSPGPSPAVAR

[6] = target: T3, 11-beta-hydroxysteroid dehydrogenase type 2 (Mus musculus, UniProt P51661); experiment: Inhibition of mouse 11beta-HSD2
T3 sequence (P51661 whole entry): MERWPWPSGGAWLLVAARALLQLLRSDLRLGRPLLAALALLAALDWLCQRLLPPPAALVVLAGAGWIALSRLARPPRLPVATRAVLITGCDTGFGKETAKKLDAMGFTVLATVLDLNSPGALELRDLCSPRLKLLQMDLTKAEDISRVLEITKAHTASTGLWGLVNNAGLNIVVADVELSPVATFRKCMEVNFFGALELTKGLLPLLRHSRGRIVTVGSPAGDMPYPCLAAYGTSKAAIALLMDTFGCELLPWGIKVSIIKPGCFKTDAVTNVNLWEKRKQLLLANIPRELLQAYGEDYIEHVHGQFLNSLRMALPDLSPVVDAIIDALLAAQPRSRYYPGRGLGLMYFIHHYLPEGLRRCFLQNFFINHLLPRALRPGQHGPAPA

[7] = target: T1, Nuclear receptor subfamily 1 group I member 2; experiment: Agonist activity at PXR; format: functional
[8] = target: 11-beta-hydroxysteroid dehydrogenase 1 (Homo sapiens, UniProt P28845); experiment: Inhibition of human 11beta-HSD1 expressed in CHO-K1 cells assessed as conversion of [3H]cortisone to [3H]cortisol by scintillation counting; format: cell-based
[9] = Blood clearance in C57BL/6 mouse; format: ADME, organism-based
[10] = target: Cytochrome P450 2C9 (Homo sapiens, UniProt P11712); experiment: Inhibition of CYP2C9; format: ADME
[11] = Half life in C57BL/6 mouse; format: ADME, organism-based; conditions: in vivo
[12] = Oral bioavailability in C57BL/6 mouse; format: ADME, organism-based; conditions: in vivo
[13] = target: Cytochrome P450 2D6 (Homo sapiens, UniProt P10635); experiment: Inhibition of CYP2D6; format: ADME
[14] = target: Cytochrome P450 3A4 (Homo sapiens, UniProt P08684); experiment: Inhibition of CYP3A4; format: ADME
[15] = system: Mus musculus; experiment: Inhibition of 11beta-HSD1 in ICR mouse assessed as conversion of [3H]cortisone to [3H]cortisol at 10 mg/kg, po after 1 hr by scintillation counting; format: functional

Chain of 11-beta-hydroxysteroid dehydrogenase 1 (Mus musculus, UniProt P50172) (P50172 whole entry): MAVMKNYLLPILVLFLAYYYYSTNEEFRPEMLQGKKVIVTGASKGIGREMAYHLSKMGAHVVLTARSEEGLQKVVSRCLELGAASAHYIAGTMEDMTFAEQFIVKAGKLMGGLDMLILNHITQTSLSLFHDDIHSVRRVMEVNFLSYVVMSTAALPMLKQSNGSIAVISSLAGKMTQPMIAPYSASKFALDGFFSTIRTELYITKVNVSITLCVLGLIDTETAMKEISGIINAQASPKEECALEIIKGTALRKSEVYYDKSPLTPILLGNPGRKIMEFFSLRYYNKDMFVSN
Chain of 11-beta-hydroxysteroid dehydrogenase 1 (Homo sapiens, UniProt P28845) (P28845 whole entry): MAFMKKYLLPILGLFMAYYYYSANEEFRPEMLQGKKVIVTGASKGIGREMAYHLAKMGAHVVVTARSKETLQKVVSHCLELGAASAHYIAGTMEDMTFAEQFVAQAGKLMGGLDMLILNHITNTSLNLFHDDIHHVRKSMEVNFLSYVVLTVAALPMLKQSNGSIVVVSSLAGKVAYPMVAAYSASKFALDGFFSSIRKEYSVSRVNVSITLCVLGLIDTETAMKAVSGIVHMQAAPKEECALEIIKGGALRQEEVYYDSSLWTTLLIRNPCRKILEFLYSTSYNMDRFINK
Chain of Cytochrome P450 2D6 (P10635 whole entry): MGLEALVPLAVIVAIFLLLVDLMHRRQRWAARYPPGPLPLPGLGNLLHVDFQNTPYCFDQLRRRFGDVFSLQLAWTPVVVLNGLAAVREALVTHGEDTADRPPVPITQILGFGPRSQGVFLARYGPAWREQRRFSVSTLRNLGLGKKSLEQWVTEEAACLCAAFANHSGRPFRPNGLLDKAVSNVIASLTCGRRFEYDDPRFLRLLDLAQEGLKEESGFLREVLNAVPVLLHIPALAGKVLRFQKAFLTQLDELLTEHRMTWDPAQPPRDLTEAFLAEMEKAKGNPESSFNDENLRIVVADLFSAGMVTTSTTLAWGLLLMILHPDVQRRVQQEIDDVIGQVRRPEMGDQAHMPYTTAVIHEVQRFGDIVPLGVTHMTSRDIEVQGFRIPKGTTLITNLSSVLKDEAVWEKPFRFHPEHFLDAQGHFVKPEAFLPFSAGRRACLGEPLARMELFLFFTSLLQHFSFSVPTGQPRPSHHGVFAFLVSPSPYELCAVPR
Chain of Cytochrome P450 2C9 (P11712 whole entry): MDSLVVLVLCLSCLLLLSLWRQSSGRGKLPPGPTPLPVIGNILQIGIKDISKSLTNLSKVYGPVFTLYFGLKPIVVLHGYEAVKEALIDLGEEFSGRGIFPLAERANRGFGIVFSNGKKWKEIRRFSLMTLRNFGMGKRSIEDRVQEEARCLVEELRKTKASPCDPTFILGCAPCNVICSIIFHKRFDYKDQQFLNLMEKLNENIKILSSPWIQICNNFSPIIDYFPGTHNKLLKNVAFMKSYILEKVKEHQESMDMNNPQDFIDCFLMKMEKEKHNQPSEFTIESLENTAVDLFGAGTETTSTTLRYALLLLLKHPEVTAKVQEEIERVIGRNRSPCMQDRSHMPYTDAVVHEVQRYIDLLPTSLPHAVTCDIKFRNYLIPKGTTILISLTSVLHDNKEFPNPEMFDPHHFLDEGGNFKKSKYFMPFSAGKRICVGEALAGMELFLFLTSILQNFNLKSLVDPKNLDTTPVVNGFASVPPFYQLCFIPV
Chain of Cytochrome P450 3A4 (P08684 whole entry): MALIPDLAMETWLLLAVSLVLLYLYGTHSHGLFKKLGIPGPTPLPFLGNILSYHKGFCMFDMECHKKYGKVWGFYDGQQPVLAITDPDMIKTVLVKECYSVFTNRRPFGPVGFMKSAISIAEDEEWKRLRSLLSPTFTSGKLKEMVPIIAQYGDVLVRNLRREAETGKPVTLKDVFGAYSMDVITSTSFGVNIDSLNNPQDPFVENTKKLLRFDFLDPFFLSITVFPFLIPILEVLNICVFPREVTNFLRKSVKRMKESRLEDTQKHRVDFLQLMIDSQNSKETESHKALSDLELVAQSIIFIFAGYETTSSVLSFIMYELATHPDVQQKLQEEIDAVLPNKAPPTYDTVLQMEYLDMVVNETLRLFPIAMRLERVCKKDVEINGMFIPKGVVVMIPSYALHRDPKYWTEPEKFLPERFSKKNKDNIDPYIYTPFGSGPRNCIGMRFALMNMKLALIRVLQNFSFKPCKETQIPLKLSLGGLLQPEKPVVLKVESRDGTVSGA

IC50 [1]	Activity [4]	IC50 [5]	IC50 [6]	EC50 [7]	IC50 [8]	clearance [9]	IC50 [10]	half-life [11]	bioavailability [12]	IC50 [13]	IC50 [14]	Structure (SMILES)	inhibition in vivo at 10 mg/kg [2]	inhibition in vivo at 10 mg/kg [3]	inhibition in vivo at 10 mg/kg [15]
2.2 nM	3%	> 4000 nM	> 4000 nM	> 30000 nM	2.2 nM	–	–	–	–	–	–	Cn1c(-c2ccc(-c3cnc(N)nc3)cc2)nnc1C1(c2ccc(Cl)cc2)CCC1	-5%	34%	–
2 nM	35%	> 4000 nM	> 4000 nM	> 30000 nM	14 nM	–	–	–	–	–	–	COc1ncc(-c2ccc(-c3nnc(C4(c5ccc(Cl)cc5)CCC4)n3C)cc2)c(OC)n1	10%	59%	–
< 1 nM	23%	> 4000 nM	> 4000 nM	> 30000 nM	2.3 nM	54 mL/min/kg	13000 nM	0.7 h	30%	16000 nM	10000 nM	Cn1c(-c2ccc(-c3cnccn3)cc2)nnc1C1(c2ccc(Cl)cc2)CCC1	79%	93%	–
2.8 nM	15%	> 4000 nM	> 4000 nM	> 30000 nM	8.8 nM	–	–	–	–	–	–	Cn1c(-c2ccc(-c3cc(=O)[nH]cn3)cc2)nnc1C1(c2ccc(Cl)cc2)CCC1	14%	26%	–
1.5 nM	14%	> 4000 nM	> 4000 nM	> 30000 nM	1.5 nM	–	–	–	–	–	–	Cn1c(-c2ccc(-c3ccc(Cl)nn3)cc2)nnc1C1(c2ccc(Cl)cc2)CCC1	-7%	40%	–
3.4 nM	26%	> 4000 nM	> 4000 nM	> 30000 nM	4.8 nM	–	–	–	–	–	–	Cc1noc(C)c1-c1ccc(-c2nnc(C3(c4ccc(Cl)cc4)CCC3)n2C)cc1	9%	63%	–
6 nM	35%	> 4000 nM	> 4000 nM	> 30000 nM	11 nM	–	–	–	–	–	–	Cn1c(-c2ccc(-c3ccon3)cc2)nnc1C1(c2ccc(Cl)cc2)CCC1	67%	95%	–
1.6 nM	43%	> 4000 nM	> 4000 nM	> 30000 nM	1.8 nM	–	–	–	–	–	–	Cn1c(-c2ccc(-c3cccnc3)cc2F)nnc1C1(c2ccc(Cl)cc2)CCC1	15%	86%	–
0.75 nM	65%	> 4000 nM	> 4000 nM	4600 nM	1.5 nM	–	–	–	–	–	–	COc1cc(-c2cccnc2)ccc1-c1nnc(C2(c3ccc(Cl)cc3)CCC2)n1C	21%	82%	–
1 nM	45%	> 4000 nM	> 4000 nM	> 30000 nM	38 nM	–	–	–	–	–	–	Cn1c(-c2ccc(-c3cccnc3)cc2O)nnc1C1(c2ccc(Cl)cc2)CCC1	10%	59%	–
1.7 nM	74%	> 4000 nM	> 4000 nM	4800 nM	2.8 nM	–	–	–	–	–	–	Cn1c(-c2ccc(-c3cnccn3)cc2F)nnc1C1(c2ccc(Cl)cc2)CCC1	81%	91%	–
1 nM	45%	> 4000 nM	> 4000 nM	> 30000 nM	3.7 nM	–	–	–	–	–	–	Cn1c(-c2ccc(-c3cnccn3)cc2OC(F)F)nnc1C1(c2ccc(Cl)cc2)CCC1	14%	88%	–
150 nM	-7%	> 4000 nM	> 4000 nM	> 30000 nM	2.2 nM	–	–	–	–	–	–	Cn1c(-c2ccc(C(N)=O)cc2C(N)=O)nnc1C1(c2ccc(Cl)cc2)CCC1	0%	-11%	–
2.3 nM	23%	> 4000 nM	> 4000 nM	> 30000 nM	5.5 nM	5 mL/min/kg	26000 nM	6.8 h	96%	25000 nM	36000 nM	Cn1c(-c2ccc(-c3cnccn3)cc2Cl)nnc1C1(c2ccc(Cl)cc2)CC(F)C1 (stereo not given)	80%	95%	–
98 nM	–	> 4000 nM	> 4000 nM	–	7.8 nM	–	–	–	–	–	–	C1CCCn2c(nnc2C23CC4CC(CC(C4)C2)C3)CC1	–	21%	31%
